Measured values from patent publication US20170044208A1, “SELECTIVE GLUCOCORTICOID RECEPTOR LIGANDS” (The University of Manchester, priority 2013, published 2017).
Where two headings read alike, the source gives them in different places.

Key:
[1] = tested on: NFkB; test: Transrepression assay (NFκB-LUC reporter in HeLa cells, TNF stimulated); type: cell-based; conditions: for Emax / IC50: Homo sapiens, HeLa; for Emax: 16 h, read-out: TR Max %; for TR %: maximal NFkB repression compared to Dexamethasone
Experimental: HeLa cells were seeded at 80×10^4 cells/dish in 100 mm dishes. Cells were transfected the next day with NFκB-LUC reporter (5 μg) and pGL4-hRLuc (0.1 μg), in 0.25 mL of Opti-MEM I using FuGENE HD (15 μL). After 24 hours, cells were trypsinized and seeded in to 24-well plates at a density of 8-10×10^4 cells/mL. Following overnight incubation, cells were starved for a further 24 hours in DMEM.
On the day of the experiment, compounds were added to cells one hour prior to the addition of […] (0.5 ng/mL). After a further 16 hours, cells were washed twice with ice-cold PBS, then lysed with 100 μL of 1×PLB.
(§1) Firefly and Renilla luciferase activity was measured using the Dual Luciferase Reporter system following the manufacturer's protocol.
(§2) IC50 and EC50 values were calculated by using GraphPad Prism 5.0. Briefly, luminescence values for luciferase were normalised using the Renilla luminescence values. The normalised values were input into GraphPad Prism 5.0. Non-linear regression analysis was carried out using the “log(concentration) vs. response” equation of the software, with a Hill slope coefficient fixed at 1.
(§3) IC50 and EC50 values are mean values in nM of all IC50/EC50 values for the compound. Max % values are mean values of the Max% activity.

[2] = biological target: T1, Glucocorticoid Receptor (GR) (Homo sapiens, UniProt P04150); test: Transactivation assay (MMTV-Luc reporter in HeLa cells); type: cell-based
T1 construct: Cells were transfected the next day with MMTV-Luc (5 μg) and pGL4-hRLuc (0.1 μg); endogenous in cells; host or cells: HeLa
T1 sequence (P04150 1-777): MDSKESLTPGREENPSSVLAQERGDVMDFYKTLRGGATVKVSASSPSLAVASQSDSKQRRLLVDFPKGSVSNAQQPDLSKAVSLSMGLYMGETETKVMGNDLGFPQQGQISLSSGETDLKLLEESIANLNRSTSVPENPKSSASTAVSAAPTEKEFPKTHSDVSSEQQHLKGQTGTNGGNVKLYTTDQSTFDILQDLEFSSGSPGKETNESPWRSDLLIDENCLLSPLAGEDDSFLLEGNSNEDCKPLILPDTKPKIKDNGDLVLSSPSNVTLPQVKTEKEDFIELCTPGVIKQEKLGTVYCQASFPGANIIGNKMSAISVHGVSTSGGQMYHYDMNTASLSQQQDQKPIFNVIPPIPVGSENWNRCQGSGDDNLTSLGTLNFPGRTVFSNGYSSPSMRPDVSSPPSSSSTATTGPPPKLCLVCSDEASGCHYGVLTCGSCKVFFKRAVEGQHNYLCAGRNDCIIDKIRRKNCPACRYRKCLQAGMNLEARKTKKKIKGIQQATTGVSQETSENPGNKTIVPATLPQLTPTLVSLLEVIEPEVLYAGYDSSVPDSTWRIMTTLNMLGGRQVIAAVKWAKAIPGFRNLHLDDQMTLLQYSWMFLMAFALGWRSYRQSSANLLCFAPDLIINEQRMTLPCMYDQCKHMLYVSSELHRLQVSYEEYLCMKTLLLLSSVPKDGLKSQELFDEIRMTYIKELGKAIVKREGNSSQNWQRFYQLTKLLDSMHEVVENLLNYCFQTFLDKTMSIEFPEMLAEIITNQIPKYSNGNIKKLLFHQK
Experimental: HeLa cells were seeded at 80×10^4 cells/dish in 100 mm dishes. Cells were transfected the next day with MMTV-Luc (5 μg) and pGL4-hRLuc (0.1 μg), in 250 μL of Opti-MEM I using FuGENE HD (15 μL). After 24 hours, cells were trypsinized and seeded into 96-well plates at a density of 8-10×10^4 cells/mL.
Following overnight incubation to allow attachment, cells were treated with the required concentration of compounds, then further incubated for 16 hours. Media was aspirated and cells lysed in 40 μL of 1×PLB.
as §1, §2, §3

[3] = concentration for half-maximal repression of NFkB, TNF 0.5 ng/mL, 16 hours, mean, read-out: TR IC50
[4] = concentration for half-maximal transactivation; HeLa, MMTV-Luc, 16 hours; mean; read-out: TA EC50
[5] = comparison table, half-maximal repression of NFkB, multiple experiments, read-out: IC50
[6] = comparison table; against maximal activation seen with dexamethasone

| Compound | Emax [1] | IC50 [1, 3] | Emax ([2]; HeLa, 16 h; read-out: TA Max %) | EC50 [2, 4] | Emax ([2]; HeLa, 16 h, read-out: TA Max %) | IC50 [1, 5] | TR % ([1]; comparison table) | TA % [2, 6] |
| --- | --- | --- | --- | --- | --- | --- | --- | --- |
| C[C@@H]1C[C@H]2[C@@H]3CCC4=CC(=O)C=C[C@]4(C)[C@@]3(F)[C@@H](O)C[C@]2(C)[C@@]1(O)C(=O)NCCCc1ccc(F)cc1 [Compound 1] | 90.8% | 8.41 nM | 21.3% | 868 nM | – | – | – | – |
| C[C@@H]1C[C@H]2[C@@H]3CCC4=CC(=O)C=C[C@]4(C)[C@@]3(F)[C@@H](O)C[C@]2(C)[C@@]1(O)C(=O)NCCCc1ccccn1 [Compound 2] | 52.4% | 23.5 nM | 18.3% | 1180 nM | – | – | – | – |
| C[C@@H]1C[C@H]2[C@@H]3CCC4=CC(=O)C=C[C@]4(C)[C@@]3(F)[C@@H](O)C[C@]2(C)[C@@]1(O)C(=O)NCCCc1ccccc1O [Compound 3] | 76% | 21.9 nM | 24.1% | 1150 nM | – | – | – | – |
| COc1ccc(OCCCNC(=O)[C@@]2(O)[C@H](C)C[C@H]3[C@@H]4CCC5=CC(=O)C=C[C@]5(C)[C@@]4(F)[C@@H](O)C[C@@]32C)cc1 [Compound 4] | 106% | 3.95 nM | – | 69.2 nM | 39.4% | – | – | – |
| C[C@@H]1C[C@H]2[C@@H]3CCC4=CC(=O)C=C[C@]4(C)[C@@]3(F)[C@@H](O)C[C@]2(C)[C@@]1(O)C(=O)NCCOc1ccc(F)cc1 [Compound 5] | 104% | 8.13 nM | 27.2% | 321 nM | – | – | – | – |
| C[C@@H]1C[C@H]2[C@@H]3CCC4=CC(=O)C=C[C@]4(C)[C@@]3(F)[C@@H](O)C[C@]2(C)[C@@]1(O)C(=O)NCCCOc1ccc(F)cc1 [Compound 6] | 84.6% | 11.5 nM | 16% | 890 nM | – | – | – | – |
| COc1ccc(OCCNC(=O)[C@@]2(O)[C@H](C)C[C@H]3[C@@H]4CCC5=CC(=O)C=C[C@]5(C)[C@@]4(F)[C@@H](O)C[C@@]32C)cc1 [Compound 7] | 97.3% | 19.4 nM | 44% | 294 nM | – | 1.22 nM | 98% | 44% |
| C[C@@H]1C[C@H]2[C@@H]3CCC4=CC(=O)C=C[C@]4(C)[C@@]3(F)[C@@H](O)C[C@]2(C)[C@@]1(O)C(=O)NCCOc1ccccn1 [Compound 8] | 95% | 5.69 nM | 49.7% | 248 nM | – | – | – | – |
| C[C@@H]1C[C@H]2[C@@H]3CCC4=CC(=O)C=C[C@]4(C)[C@@]3(F)[C@@H](O)C[C@]2(C)[C@@]1(O)C(=O)NCCCOc1ccc(C(F)(F)F)cc1 [Compound 9] | 80.5% | 25 nM | 15.1% | 1110 nM | – | – | – | – |
| C[C@@H]1C[C@H]2[C@@H]3CCC4=CC(=O)C=C[C@]4(C)[C@@]3(F)[C@@H](O)C[C@]2(C)[C@@]1(O)C(=O)NCCOc1nc2ccccc2o1 [Compound 10] | 55.1% | 35.4 nM | 4.79% | 3390 nM | – | – | – | – |
| C[C@@H]1C[C@H]2[C@@H]3CCC4=CC(=O)C=C[C@]4(C)[C@@]3(F)[C@@H](O)C[C@]2(C)[C@@]1(O)C(=O)NCCCc1ccccc1 [Compound 11] | 88.8% | 30.2 nM | 36.5% | 114 nM | – | – | – | – |
| C[C@@H]1C[C@H]2[C@@H]3CCC4=CC(=O)C=C[C@]4(C)[C@@]3(F)[C@@H](O)C[C@]2(C)[C@@]1(O)C(=O)NCCOc1ccncc1 [Compound 12] | 91.1% | 40.7 nM | 23.8% | 719 nM | – | – | – | – |
| COc1ccc(CCCNC(=O)[C@@]2(O)[C@H](C)C[C@H]3[C@@H]4CCC5=CC(=O)C=C[C@]5(C)[C@@]4(F)[C@@H](O)C[C@@]32C)cc1OC [Compound 13] | 87.6% | 10.8 nM | 30% | 189 nM | – | – | – | – |
| C[C@@H]1C[C@H]2[C@@H]3CCC4=CC(=O)C=C[C@]4(C)[C@@]3(F)[C@@H](O)C[C@]2(C)[C@@]1(O)C(=O)NCCCc1cccc(F)c1 [Compound 14] | 88.6% | 23.9 nM | 36.6% | 536 nM | – | – | – | – |
| COc1cccc(OCCCNC(=O)[C@@]2(O)[C@H](C)C[C@H]3[C@@H]4CCC5=CC(=O)C=C[C@]5(C)[C@@]4(F)[C@@H](O)C[C@@]32C)c1 [Compound 15] | 79.7% | 3.53 nM | 20.8% | 1230 nM | – | – | – | – |
| COc1ccc(OCCCNC(=O)[C@@]2(O)[C@H](C)C[C@H]3[C@@H]4CCC5=CC(=O)C=C[C@]5(C)[C@@]4(F)[C@@H](O)C[C@@]32C)cc1OC [Compound 16] | 87.2% | 26.8 nM | 21.2% | 881 nM | – | – | – | – |
| COC(=O)c1ccc(OCCCNC(=O)[C@@]2(O)[C@H](C)C[C@H]3[C@@H]4CCC5=CC(=O)C=C[C@]5(C)[C@@]4(F)[C@@H](O)C[C@@]32C)cc1 [Compound 17] | 82.3% | 1.19 nM | 39.1% | 832 nM | – | 1.19 nM | 87% | 39% |
| COc1ccc(OCCCCNC(=O)[C@@]2(O)[C@H](C)C[C@H]3[C@@H]4CCC5=CC(=O)C=C[C@]5(C)[C@@]4(F)[C@@H](O)C[C@@]32C)cc1 [Compound 18] | 82.1% | 6.83 nM | 26.3% | 669 nM | – | 5.96 nM | 84% | 26% |
| C[C@@H]1C[C@H]2[C@@H]3CCC4=CC(=O)C=C[C@]4(C)[C@@]3(F)[C@@H](O)C[C@]2(C)[C@@]1(O)C(=O)NCCCOc1ccc(C(=O)O)cc1 [Compound 19] | 33.3% | 1450 nM | 0.84% | 406000 nM | – | – | – | – |
| C[C@@H]1C[C@H]2[C@@H]3CCC4=CC(=O)C=C[C@]4(C)[C@@]3(F)[C@@H](O)C[C@]2(C)[C@@]1(O)c1csc(NC(=O)c2ccc(F)cc2)n1 [Compound 23] | 52.1% | 35.8 nM | 5.67% | 1400 nM | – | 35.8 nM | 52% | 6% |
| C[C@@H]1C[C@H]2[C@@H]3CCC4=CC(=O)C=C[C@]4(C)[C@@]3(F)[C@@H](O)C[C@]2(C)[C@@]1(O)c1csc(NC(=O)Cc2ccc(F)cc2)n1 [Compound 24] | 79% | 5.96 nM | 2.63% | 7690 nM | – | – | – | – |
| C[C@@H]1C[C@H]2[C@@H]3CCC4=CC(=O)C=C[C@]4(C)[C@@]3(F)[C@@H](O)C[C@]2(C)[C@@]1(O)c1csc(NCc2ccccc2)n1 [Compound 25] | 79% | 29.1 nM | 1.92% | 3930 nM | – | – | – | – |
| C[C@@H]1C[C@H]2[C@@H]3CCC4=CC(=O)C=C[C@]4(C)[C@@]3(F)[C@@H](O)C[C@]2(C)[C@@]1(O)c1csc(NC(=O)c2cccc(F)c2)n1 [Compound 26] | 44.1% | 8.22 nM | 3.9% | 1530 nM | – | – | – | – |
| C[C@@H]1C[C@H]2[C@@H]3CCC4=CC(=O)C=C[C@]4(C)[C@@]3(F)[C@@H](O)C[C@]2(C)[C@@]1(O)c1csc(NC(=O)c2ccc(Cl)cc2)n1 [Compound 27] | 49.7% | 10.9 nM | 5.89% | 1640 nM | – | – | – | – |
